Source: patent US6359111B1, “Opioid receptor targeting” (NeoRx Corporation, priority 1998, dated 2002)
“And” between values parts separate entries of the source, which are not always exact repeats. Equal values may be shown once.

Biological target: T1, Delta-Opioid Receptor (Mus musculus, UniProt P32300)
T1 construct: host or cells: NG108-15
Test: Delta-opioid receptor binding: inhibition of specific binding of 3H NID to intact NG108-15 cells
Conditions: for EC50: EC50 (M), competition with 3H NID, intact NG108-15 cells, 2 hr at 37° C.
Method: To do so, 1 to 4 serial dilutions of test compounds and naltrindole (NID, Sigma) are prepared to generate solutions with concentrations ranging from 10^−3 to 10^−14 M in 50 mM Tris buffer, pH 7.5. ^3H NID (American Radiolabeled Chemicals, St. Louis, Mo., specific activity 49 dpm/10^−15 mol) is prepared in Tris at a concentration of 10^−9 M. Cultured cells of the neruablastoma/glioblastoma hybrid cell line NG108-15 (American Type Culture Collection) are briefly trypsinized, washed with media, and resuspended at 6×10^5 cells/mL. 20 μL of test compound or NID solution and 20 μL of ^3H NID are added to each of 96 wells of a Multiscreen assay system (Millipore) MAFB. 160 μL of cell suspension in Dulbecco's MEM+HAT with 10% Fetal Bovine Serum are added. The reactions are allowed to equilibrate 2 hr at 37° C., vacuum filtered, washed 2× with 200 μL ice cold Tris buffer and air dried. The filters are punched out of the plate into scintillation vials and mixed on a shaker overnight before counting.
Data is analyzed by the Prism software package (GraphPad Software, Inc., San Diego, Calif.) using a non-linear curve fit routine for one site competitive binding.

T1 sequence (P32300 whole entry): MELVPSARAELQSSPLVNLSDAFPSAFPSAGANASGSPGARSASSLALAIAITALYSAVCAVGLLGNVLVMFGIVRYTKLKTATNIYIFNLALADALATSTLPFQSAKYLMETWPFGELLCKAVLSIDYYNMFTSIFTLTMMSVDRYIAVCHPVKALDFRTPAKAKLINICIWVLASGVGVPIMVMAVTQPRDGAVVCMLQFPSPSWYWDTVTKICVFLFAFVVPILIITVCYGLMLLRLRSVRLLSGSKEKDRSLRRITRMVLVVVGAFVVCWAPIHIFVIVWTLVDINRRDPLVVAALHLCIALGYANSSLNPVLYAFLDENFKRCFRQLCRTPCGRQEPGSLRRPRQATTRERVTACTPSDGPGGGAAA

Oc1ccc2c3c1O[C@H]1c4[nH]c5ccccc5c4C[C@@]4(O)[C@@H](C2)N(CC2CC2)CC[C@]314 [NID, naltrindole, reference compound]
EC50: 4.2e-09 M and 1.8e-09 M

O=C(O)CN1CCN(CC(=O)O)CCN(CC(=O)O)C(Cc2ccc(NC(=O)CCCCCNC(=O)Cn3c4c(c5ccccc53)CC3(O)C5Cc6ccc(O)c7c6C3(CCN5CC3CC3)C4O7)cc2)CN(CC(=O)O)CC1 (stereo not shown) [NID-DOTA]
EC50: 1.2e-08 M | Test/Control (ratio of EC50 of test compound to EC50 of NID in the same test): 2.8 | fold lower in affinity than NID (summary of Table 1): about 3 fold
